In patent publication US9075071B1, “Methods for diagnosis and treatment of cancer” (University of Mississippi Medical Center, priority 2012, dated 2015):
Counter-ions that a name gives are not always drawn. Peptide text beside a SMILES is read from it. * marks the point of attachment. Cbz = O=C(OCc1ccccc1)*

What was measured:
HME cells = test: Cell cycle progression, PI labeling and FACS; assay type: cell-based, human; conditions: for effect on cell cycle progression: normal HME cells, 24 h, vs DMSO, ZM447439 5 μM, Nocodazole 250 ng/ml, Taxol 10 μM
Protocol: (§1) Breast cancer cell lines were maintained in RPMI medium (Invitrogen, Carlsbad, Calif.) supplemented with 10% FBS and antibiotics. Maintenance of HME cells was performed as described previously. Cells were treated with 5 μM […] (Toronto Research Chemicals Inc., North York, ON), 100 ng/ml colcemid (Sigma, St. Louis, Mo.), 250 ng/ml Nocodazole (Sigma), 10 μM Taxol (Sigma). PI or FITC-conjugated anti-BrdU FACS analysis was performed as in [20]. Annexin-V was performed according to manufacturer's instructions (BD Biosciences, 556547, San Jose, Calif.).
(§2) To evaluate that in detail, HME (or Gem9−Dox) and induced (72 h) Gem9 cells were incubated with 5 μM of ZM447439 (a specific and potent inhibitor of AurB) for an additional 24 h. To measure the effect of ZM447439 on cell cycle progression aliquots from each culture were labeled with PI and analyzed by FACS.
(§3) To evaluate whether these effects were restricted to AurB inhibitors or could be seen with drugs that alter the integrity of the microtubules apparatus as well, HME and induced Gem9 cells were treated with DMSO (control), Nocodazole (a microtubules depolymerizing agent) or Taxol (a microtubules stabilizing agent) for another 24 h. […] However, both treatments also had modest effect on geminin overexpression cells (FIGS. 9C and 9D).
(§4) Low number of dying cells was detected in parental or Gem9 cells in the absence of Dox (FIGS. 13E/1 and 13E/5, 13F/1 and 13F/5 and 13G) or in HME cells in the presence of Dox (FIGS. 13E/2 and 13E/6, 13F/2 and 13F/6 and 13G). […] It was thought that degradation of geminin following c-Abl silencing or inactivation promoted cell death in geminin overexpressing and not normal cells, at least in part, because cells became addicted to high levels of geminin.

[1] = test system: induced Gem9 cells (geminin overexpressing HME cells); test: Cell cycle progression, PI labeling and FACS; assay type: cell-based, human; conditions: Gem9 induced 72 h; for effect on cell cycle progression: then drug 24 h, vs DMSO, ZM447439 5 μM, Nocodazole 250 ng/ml, Taxol 10 μM
Protocol: as §1, §2, §3, §4

[2] = test system: induced Gem9 (Gem9+Dox) cells; test: Cell survival, PI/annexin V labeling and FACS; assay type: cell-based, human; conditions: Gem9 induced 72 h, then drug 24 h; ZM447439 5 μM, Nocodazole 250 ng/ml
Protocol: as §1
(§5) To measure the effect on ZM447439 on cell survival, aliquots from each culture were labeled with PI/annexin V and analyzed by FACS. […] Indeed, in ZM447439 treated cells only 40±5% of the cells were PI^−/V^−, and 41±7% were PI^+/V^− and 20±6% were PI^−/V^++PI^+/V (FIG. 9B). […] Indeed, in ZM447439 treated cells 66±4% of the cells were PI^−/V^−, 24±3% were PI^+/V^− and 10±3% were PI^−/V^++PI^+/V^+ (FIG. 9E).

[3] = test system: uninduced Gem9 (Gem9-Dox, HME) cells; test: Cell survival, PI/annexin V labeling and FACS; assay type: cell-based, human; conditions: 24 h, ZM447439 5 μM, Nocodazole 250 ng/ml
Protocol: as §1, §5

SCID mice = conditions: mouse, in vivo
Protocol: Geminin overexpressing cells were injected subcutaneously or orthotopically (in mammary gland) in SCID mice as described above. When tumors reached 0.5-0.75 cm^3 in volume the treatments were initiated. […] Mice were treated for 5 days and were rested for 2 days and tumor size was measured daily using calipers. At the end of the experiments tumors were dissected out, weighed and fixed in formalin, and cut at 4 μm for histological and immunohistochemical analysis.

geminin protein = test: Geminin level by western blot of sonicated extracts; assay type: cell-based, human
Protocol: To study the consequence of silencing or inactivating c-Abl on geminin overexpressing cells, experiments were first undertaken to analyze what happens to geminin protein following c-Abl silencing or inactivation. […] Another Dox treated set of cells were transfected with c-Abl dominant negative construct (i.e. K209R, see Srinivasan and Plattner, 2006) during the last 48 h. Sonicated extracts were then prepared from all cultures and geminin level was measured using western blot analysis. […] Similar effects were also observed in cells endogenously overexpressing geminin.

p-(S10)-H3 = test: FITC-anti-p-H3-(S10) labeling and FACS; assay type: cell-based, human; conditions: imatinib 10 μM 24 h, c-Abl silencing 72 h
Description: Diminution of (S10)-H3 phosphorylation leads to chromosome condensation failure, lack of chromosome segregation and induction of aneuploidy (Giet et al., 2001). […] Aliquots of each culture were then fixed, labeled with FITC-anti-p-H3-(S10) specific antibody and analyzed by FACS.

[4] = test system: induced Gem9 cells (geminin overexpressing); test: Metaphase chromosome spread, chromosome condensation; assay type: cell-based, human
Protocol: (§6) […] Cells were then trypsinized and washed and gently resuspended in PBS. 10 ml of 0.075M KCl was drop wise added and the cells were incubated at 37° C. (in a water bath) for 5-10 mins. Cells were then centrifuged at 900 rpm for 5 minutes and KCl was removed. 5 ml of freshly prepared fixative (3:1 Methanol/Acetic acid) was added drop wise to the cells and carefully mixed. Cells were centrifuged at 900 rpm for 5 minutes and the fixative was removed. This step was repeated 2 more times. Finally, all but 300 μl of the fixative media was removed and cells were dropped from approximately 18 inches onto an angled, humidified microscope slide. Slides were air-dry for at least 10 mins and cells were stained with propidium iodide (PI) or Giemsa.

induced Gem9 cells [5] = test: PI / FITC-anti-BrdU FACS, tetraploid/aneuploid cells; assay type: cell-based, human; conditions: Gem9 induced 72 h (approximately 35% without treatment); imatinib 10 μM last 24 h, c-Abl silencing 72 h
Protocol: BrdU (20 μM) was added to all cultures during the last 24 h and cultures were collected, labeled with PI and FITC-anti-BrdU antibody and analyzed by FACS.

induced Gem9 cells [6] = test: Dying cells under light microscope and TUNEL; assay type: cell-based, human; conditions: Gem9 induced 96 h; imatinib 10 μM last 48 h, c-Abl silencing 96 h
Description: (§7) The Fluorescein FragEL™ DNA Fragmentation Detection kit (Calbiochem) was used according to the supplier's protocol.
as §4

parental HME cells = test: Dying cells under light microscope and TUNEL; assay type: cell-based, human; conditions: imatinib 10 μM last 48 h, c-Abl siRNA 96 h
Description: as §7, §4

Gem9/LT mammary tumors = test: Treatment of orthotopic (mammary) geminin-driven tumors in SCID mice; assay type: in vivo, mouse
Protocol: (§8) All animal experiments were approved by the University of Hawaii IACUC committee and University of Mississippi Medical Center IACUC committee. Six- to eight-week-old anaesthetized immune-compromised athymic SCID (NOD.CB17-Prkdc^scid/J, Jackson Laboratory) mice were injected with human mammary epithelial (HME) cells (5×10^6) resuspended in 200 μl of HME medium/matrigel (1:1) using a 25-gauge needle. Tumor initiation was defined as the time when tumors were 3 mm in diameter. Mice were sacrificed when the tumors grew to greater than 1.5 cm in diameter or after 12 wks of monitoring. Tumor volume was calculated with the formula 4/3πr^3 (where r is the tumor radius). At the end of the experiments tumors were dissected out, weighed and then fixed in formalin, and subsequently cut at 4 μm for histological and immunohistochemical analysis.
(§9) Tumor formation was analyzed with IVIS luciferase machine (Xenogen, Alameda, Calif.) weekly and tumor size was measured every third day by calipers. To analyze tumor formation using the in vivo system, mice were intraperitoneally injected using a 30G needle with 100 μl of D-luciferin solution (Xenogen) prepared at 15 mg/mL in PBS. […]
(§10) Geminin overexpressing cells were injected subcutaneously or orthotopically (in mammary gland) in SCID mice as described above. […] Mice were treated for 5 days and were rested for 2 days and tumor size was measured daily using calipers. […]

[7] = test system: Gem9/LT subcutaneous tumors; test: Treatment of subcutaneous geminin-driven tumors in SCID mice; assay type: in vivo, mouse; conditions: imatinib 50 mg/kg/day, day 12
Protocol: as §8, §9, §10

uninduced Gem9 cells = test: Metaphase chromosome spread, chromosome condensation; assay type: cell-based, human; conditions: 10 μM colcemid 1 h
Protocol: as §6

leukemia cells = conditions: cited from earlier work

COC(=O)Nc1nc2ccc(C(=O)c3cccs3)cc2[nH]1 [Nocodazole]
effect on cell cycle progression (HME cells): triggered accumulation of normal HME cells in G2/M phase, followed by tetraploidy and then cell death | effect on cell cycle progression [1]: modest effect | alive cells (PI-/V-) [2]: 78±6% | apoptotic cells (PI-/V+ + PI+/V+) [2]: 10±2% | necrotic cells (PI+/V-) [2]: 12±3% | alive cells (PI-/V-) [3]: 75±5% | apoptotic cells (PI-/V+ + PI+/V+) [3]: 20±5% | necrotic cells (PI+/V-) [3]: 6±4%

COc1cccc2c1C(=O)c1c(O)c3c(c(O)c1C2=O)C[C@@](O)(C(=O)CO)C[C@@H]3O[C@H]1C[C@H](N)[C@H](O)[C@H](C)O1 [doxorubicin]
toxicity to the mice (SCID mice): adverse side effects including death

CC(C)C[C@@H](C=O)NC(=O)[C@H](CC(C)C)NC(=O)[C@H](CC(C)C)NC(=O)OCc1ccccc1 [MG132] (Cbz-Leu-Leu-Leu-aldehyde)
geminin protein level (geminin protein; HME as well as induced Gem9 (72 h) cells, 10 μM MG132 together with 10 μM imatinib, last 24 h): an increase instead of a decrease

CC(=O)O[C@H]1C(=O)[C@@]2(C)[C@H]([C@H](OC(=O)c3ccccc3)[C@]3(O)C[C@H](OC(=O)[C@H](O)[C@@H](NC(=O)c4ccccc4)c4ccccc4)C(C)=C1C3(C)C)[C@]1(OC(C)=O)CO[C@@H]1C[C@@H]2O [Taxol]
effect on cell cycle progression (HME cells): triggered accumulation of normal HME cells in G2/M phase, followed by tetraploidy and then cell death | effect on cell cycle progression [1]: modest effect

Cc1ccc(NC(=O)c2ccc(CN3CCN(C)CC3)cc2)cc1Nc1nccc(-c2cccnc2)n1 [imatinib, imatinib mesylate]
effect on cell cycle (PI FACS) (HME cells; HME cells, imatinib 10 μM last 24 h, c-Abl silencing 72 h): induced G1-arrest | effect on cell cycle (PI FACS), sub-G1 and >4N cells ([1]; imatinib 10 μM last 24 h, c-Abl silencing 72 h): induced significant increase in sub-G1 and reduced the level of >4N cells | p-(S10)-H3-positive cells (p-(S10)-H3; induced Gem9 cells (approximately 2% without treatment)): approximately 13% | p-(S10)-H3-positive cells (p-(S10)-H3; parental HME cells): reduced the percentage of p(S10)-H3-positive cells | chromosome condensation ([4]; Gem9 with Dox 7 days plus colcemid, imatinib 10 μM last 24 h, c-Abl silencing last 72 h): restored chromosome condensation | cells with greater than 4N DNA content (tetraploid/aneuploid) (induced Gem9 cells [5]): approximately 6% | endogenous geminin protein level (geminin protein; HME cells, Dox 72 h, imatinib 10 μM last 24 h, c-Abl silencing 72 h): Significant reduction | geminin protein level (geminin protein; MCF7 (ER+) breast cancer cells, imatinib 10 μM or c-Abl silencing): significantly reduced the level of geminin protein | geminin protein level (geminin protein; MDAMB231 (ER-) breast cancer cells, imatinib 10 μM or c-Abl silencing): significantly reduced the level of geminin protein | overexpressed geminin protein level (geminin protein; induced Gem9 cells, Dox 72 h, imatinib 10 μM last 24 h, c-Abl silencing 72 h): Significant reduction | number of dying cells (light microscope, TUNEL+) (induced Gem9 cells [6]): high number of dying cells | number of dying cells (light microscope, TUNEL+) (parental HME cells): Low level of dying cells | mammary tumor size compared with no treatment (Gem9/LT mammary tumors; imatinib 50 mg/kg/day): 5-10 fold | killing of geminin-driven tumors (tumor size) (Gem9/LT mammary tumors; start at 0.5 to 0.7 cm^3, imatinib 50 mg/kg/day, doxorubicin 5 mg/kg/day, 14 days): as effective in killing geminin-driven tumors as doxorubicin | subcutaneous tumors after treatment [7]: barely detectable

CN[C@H]1CCc2cc(OC)c(OC)c(OC)c2-c2ccc(OC)c(=O)cc21 [colcemid]
chromosome condensation ([4]; Gem9 with Dox 7 days, 10 μM colcemid 1 h): failed to condense the chromosomes | chromosome condensation (uninduced Gem9 cells): induced condensation

CCN(CCCOc1ccc2c(Nc3cc(CC(=O)Nc4cccc(F)c4)n[nH]3)ncnc2c1)CCOP(=O)(O)O [AZD1152]
effect on DNA content of cells (leukemia cells): induce accumulation of cells with greater than 4N DNA content

COc1cc2c(Nc3ccc(NC(=O)c4ccccc4)cc3)ncnc2cc1OCCCN1CCOCC1 [ZM447439]
effect on cell cycle progression (HME cells): triggered accumulation of normal HME cells in G2/M phase followed by tetraploidy and then cell death | effect on cell cycle progression [1]: little effect | alive cells (PI-/V-) [2]: 66±4% | apoptotic cells (PI-/V+ + PI+/V+) [2]: 10±3% | necrotic cells (PI+/V-) [2]: 24±3% | alive cells (PI-/V-) [3]: 40±5% | apoptotic cells (PI-/V+ + PI+/V+) [3]: 20±6% | necrotic cells (PI+/V-) [3]: 41±7%
